{"source": "ChEMBL document CHEMBL1201862", "about": "“PubChem BioAssay data set” (2004)", "key": {"Prothrombin": {"target": "Prothrombin (Homo sapiens, UniProt P00734)", "assay": "Thrombin 1536 HTS Dose Response Confirmation. [Related pubchem assays: 1046 (Thrombin 1536 HTS; hits were confirmed in this assay)]", "assay_type": "functional"}, "Estrogen receptor beta": {"target": "Estrogen receptor beta (Homo sapiens, UniProt Q92731)", "sequence (Q92731 whole entry)": "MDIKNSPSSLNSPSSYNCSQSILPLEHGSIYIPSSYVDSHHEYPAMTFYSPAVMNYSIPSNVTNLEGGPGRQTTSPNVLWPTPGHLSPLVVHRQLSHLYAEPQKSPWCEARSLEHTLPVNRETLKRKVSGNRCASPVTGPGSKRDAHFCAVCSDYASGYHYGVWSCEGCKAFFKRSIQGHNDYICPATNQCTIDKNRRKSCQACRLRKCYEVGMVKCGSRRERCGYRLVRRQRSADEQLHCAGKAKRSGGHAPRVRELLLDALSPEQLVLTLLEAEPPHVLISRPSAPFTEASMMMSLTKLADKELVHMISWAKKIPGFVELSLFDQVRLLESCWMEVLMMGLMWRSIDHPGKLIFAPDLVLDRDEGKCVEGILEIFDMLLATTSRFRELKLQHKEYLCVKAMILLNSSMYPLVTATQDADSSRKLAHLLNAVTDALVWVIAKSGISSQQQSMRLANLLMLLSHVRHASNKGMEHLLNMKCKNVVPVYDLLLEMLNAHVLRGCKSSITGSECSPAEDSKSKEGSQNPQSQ", "assay": "blockers of SRC-3 recruitment to ERβ – biochemical, ELISA, streptavidin-HRP readout, orthogonal assay, confirmation (AID 1060)"}, "Cytochrome P450 3A4": {"target": "Cytochrome P450 3A4 (Homo sapiens, UniProt P08684)", "sequence (P08684 whole entry)": "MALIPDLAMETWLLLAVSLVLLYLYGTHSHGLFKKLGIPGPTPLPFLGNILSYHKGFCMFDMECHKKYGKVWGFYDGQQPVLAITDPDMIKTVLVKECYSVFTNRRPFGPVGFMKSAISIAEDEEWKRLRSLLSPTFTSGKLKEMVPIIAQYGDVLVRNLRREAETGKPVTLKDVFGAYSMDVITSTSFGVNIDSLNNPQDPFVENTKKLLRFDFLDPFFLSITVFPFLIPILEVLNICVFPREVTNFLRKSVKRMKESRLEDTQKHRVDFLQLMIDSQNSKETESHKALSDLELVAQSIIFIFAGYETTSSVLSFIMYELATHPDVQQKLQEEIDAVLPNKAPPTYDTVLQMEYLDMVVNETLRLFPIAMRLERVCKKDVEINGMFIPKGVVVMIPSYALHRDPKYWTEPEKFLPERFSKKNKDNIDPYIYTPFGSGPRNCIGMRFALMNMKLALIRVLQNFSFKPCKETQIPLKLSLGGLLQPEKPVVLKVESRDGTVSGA", "conditions": "Potency"}, "[1]": {"target": "DNA dC->dU-editing enzyme APOBEC-3A (Homo sapiens, UniProt P31941)", "sequence (P31941 whole entry)": "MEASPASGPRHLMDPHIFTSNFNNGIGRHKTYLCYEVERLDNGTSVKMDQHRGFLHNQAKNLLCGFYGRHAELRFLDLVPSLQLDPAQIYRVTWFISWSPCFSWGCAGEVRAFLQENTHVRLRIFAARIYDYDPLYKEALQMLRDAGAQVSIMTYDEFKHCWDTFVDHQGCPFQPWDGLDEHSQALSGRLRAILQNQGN", "assay": "A3A deaminase inhibition for selectivity – biochemical, dose response (AID 504722)", "assay_type": "functional"}, "[2]": {"target": "DNA dC->dU-editing enzyme APOBEC-3G (Homo sapiens, UniProt Q9HC16)", "sequence (Q9HC16 whole entry)": "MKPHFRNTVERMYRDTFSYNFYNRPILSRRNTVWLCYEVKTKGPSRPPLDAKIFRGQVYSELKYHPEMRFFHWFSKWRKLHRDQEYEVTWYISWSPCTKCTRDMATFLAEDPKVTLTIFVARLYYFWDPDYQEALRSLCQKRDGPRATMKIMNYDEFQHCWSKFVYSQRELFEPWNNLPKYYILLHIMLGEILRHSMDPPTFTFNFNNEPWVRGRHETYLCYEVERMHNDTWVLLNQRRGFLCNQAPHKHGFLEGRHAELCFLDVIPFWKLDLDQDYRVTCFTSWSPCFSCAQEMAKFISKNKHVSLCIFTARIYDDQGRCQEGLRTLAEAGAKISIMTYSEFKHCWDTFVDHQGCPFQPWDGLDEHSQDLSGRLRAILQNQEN", "assay": "Dose Response confirmation of small molecule APOBEC3G DNA Deaminase Inhibitors via a fluorescence-based single-stranded DNA deaminase assay. [Related pubchem assays (depositor defined):AID493012, AID493028]", "assay_type": "functional"}, "Large T antigen": {"target": "Large T antigen (Simian virus 40, UniProt P03070)", "sequence (P03070 whole entry)": "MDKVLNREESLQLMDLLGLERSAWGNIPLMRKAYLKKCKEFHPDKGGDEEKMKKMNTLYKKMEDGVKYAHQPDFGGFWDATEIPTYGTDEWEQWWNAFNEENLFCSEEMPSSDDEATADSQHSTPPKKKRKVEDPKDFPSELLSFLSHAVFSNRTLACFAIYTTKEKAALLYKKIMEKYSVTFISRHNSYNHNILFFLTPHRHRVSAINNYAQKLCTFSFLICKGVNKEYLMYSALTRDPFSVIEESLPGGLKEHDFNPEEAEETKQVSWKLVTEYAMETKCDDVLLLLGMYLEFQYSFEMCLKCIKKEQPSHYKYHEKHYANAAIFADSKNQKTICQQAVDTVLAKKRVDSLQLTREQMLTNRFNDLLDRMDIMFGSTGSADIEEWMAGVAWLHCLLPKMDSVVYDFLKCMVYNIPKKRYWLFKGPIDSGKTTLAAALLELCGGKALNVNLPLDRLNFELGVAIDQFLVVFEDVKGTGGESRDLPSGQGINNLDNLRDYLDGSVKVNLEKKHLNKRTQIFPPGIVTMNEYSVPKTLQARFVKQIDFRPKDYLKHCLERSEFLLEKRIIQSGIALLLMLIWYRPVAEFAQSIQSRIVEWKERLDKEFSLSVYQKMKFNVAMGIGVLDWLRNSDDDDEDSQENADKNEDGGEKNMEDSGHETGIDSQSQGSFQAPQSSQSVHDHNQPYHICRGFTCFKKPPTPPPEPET", "assay_type": "functional, Betapolyomavirus macacae"}, "[3]": {"assay": "A cytotoxicity screen of small molecule inhibitors of the PhoP region in Salmonella typhi identified in the primary screen. [Related pubchem assays: 1850, 1864, 1985 ]", "assay_type": "functional"}, "[4]": {"target": "Disintegrin and metalloproteinase domain-containing protein 17 (Homo sapiens, UniProt P78536)", "sequence (P78536 whole entry, the tested form may be a part)": "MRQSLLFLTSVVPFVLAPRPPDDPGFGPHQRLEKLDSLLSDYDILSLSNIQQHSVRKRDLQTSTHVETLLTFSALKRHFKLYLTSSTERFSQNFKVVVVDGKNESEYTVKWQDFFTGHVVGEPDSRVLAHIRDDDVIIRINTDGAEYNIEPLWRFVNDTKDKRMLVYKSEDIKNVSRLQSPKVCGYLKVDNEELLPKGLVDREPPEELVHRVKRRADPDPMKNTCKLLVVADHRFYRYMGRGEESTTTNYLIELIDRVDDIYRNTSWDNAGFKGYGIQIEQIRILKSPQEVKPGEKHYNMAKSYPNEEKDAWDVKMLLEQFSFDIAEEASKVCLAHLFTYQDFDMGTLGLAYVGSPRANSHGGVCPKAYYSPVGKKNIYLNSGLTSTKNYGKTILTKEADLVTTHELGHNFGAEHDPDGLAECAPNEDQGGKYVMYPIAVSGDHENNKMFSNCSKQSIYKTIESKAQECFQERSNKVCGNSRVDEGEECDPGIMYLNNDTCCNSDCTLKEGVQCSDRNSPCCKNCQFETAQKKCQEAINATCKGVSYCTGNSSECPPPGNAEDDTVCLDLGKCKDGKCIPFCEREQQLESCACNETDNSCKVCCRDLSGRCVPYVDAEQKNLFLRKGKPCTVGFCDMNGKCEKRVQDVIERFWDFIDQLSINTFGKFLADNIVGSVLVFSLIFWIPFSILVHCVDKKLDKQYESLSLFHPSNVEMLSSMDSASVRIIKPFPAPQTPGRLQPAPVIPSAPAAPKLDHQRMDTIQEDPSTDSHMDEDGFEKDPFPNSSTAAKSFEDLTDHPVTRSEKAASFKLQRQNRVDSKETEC", "assay": "exosite inhibitors of ADAM17, dose response, biochemical (AID 743260)"}, "[5]": {"assay": "inhibition of ADAM10 peptide cleavage – biochemical, FRET peptide substrate, recombinant human ADAM10, selectivity assay for ADAM17 exosite inhibitor project, dose response (AID 743259)"}, "[6]": {"assay": "Luminescence Cell-Based Dose Retest to Confirm Inhibitors of Cancer Stem Cells. [Related pubchem assays (depositor defined):AID2717, AID2721]", "assay_type": "functional", "conditions": "Homo sapiens"}, "BJ [7]": {"system": "BJ", "assay": "BJ-TERT fibroblast viability loss – cell-based, RAS-independent, luminescence, dose response (AID 1933)", "assay_type": "functional", "conditions": "Homo sapiens"}, "[8]": {"assay": "DRD fibroblast viability loss – cell-based, non-viral oncogenic, luminescence, dose response (AID 1934)", "assay_type": "functional", "conditions": "Homo sapiens"}, "BJ [9]": {"system": "BJ", "assay": "BJ-TERT-LT-ST fibroblast viability loss – cell-based, RAS-independent, luminescence, dose response (AID 1935);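 note: BJ fibroblasts immortalized with TERT plus LT and ST oncogenes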", "assay_type": "functional", "conditions": "Homo sapiens"}, "BJ [10]": {"system": "BJ", "assay": "cells", "assay_type": "functional, cell-based", "conditions": "Homo sapiens"}, "BJ [11]": {"system": "BJ", "assay": "growth inhibition of engineered Ras-driven BJ cells – cell-based, alamar blue fluorescence, cherrypicked samples, dose response (AID 2631)", "assay_type": "functional", "conditions": "Homo sapiens"}, "Vero": {"system": "Vero", "assay": "cells", "assay_type": "functional", "conditions": "Chlorocebus sabaeus"}, "[12]": {"target": "T1, DNA repair protein RAD52 homolog (Homo sapiens, UniProt P43351)", "T1 sequence (P43351 whole entry)": "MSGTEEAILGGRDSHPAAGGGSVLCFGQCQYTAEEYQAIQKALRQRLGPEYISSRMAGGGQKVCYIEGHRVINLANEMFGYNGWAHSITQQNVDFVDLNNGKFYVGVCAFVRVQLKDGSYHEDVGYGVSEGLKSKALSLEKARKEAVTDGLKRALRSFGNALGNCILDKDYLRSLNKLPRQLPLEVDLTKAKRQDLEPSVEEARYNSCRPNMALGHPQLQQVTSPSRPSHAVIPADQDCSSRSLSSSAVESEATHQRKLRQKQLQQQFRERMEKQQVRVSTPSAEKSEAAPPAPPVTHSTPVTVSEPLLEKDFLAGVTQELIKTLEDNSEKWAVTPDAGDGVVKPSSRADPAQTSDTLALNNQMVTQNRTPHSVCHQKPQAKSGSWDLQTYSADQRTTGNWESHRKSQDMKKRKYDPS", "assay_type": "functional, biochemical"}, "[13]": {"assay": "M. tuberculosis H37Rv growth inhibitors, H37Rv strain (AID 1626)", "assay_type": "functional"}, "[14]": {"assay": "viability of uninfected HEp-2 cells – cell-based, HTS, cytotoxicity control for RSV inhibitor project, dose response (AID 2410)", "assay_type": "functional", "conditions": "human respiratory syncytial virus"}}, "note": "Active and inactive are the calls of the source.", "data": [{"smiles": "CCCCc1nc2ccccc2c(NC(=O)CNC(C)(C)C)c1CCC", "values": [{"measurement": "IC50", "setting": "Prothrombin", "value": "> 50 µM (not active)"}]}, {"smiles": "CSc1nc(-c2ccco2)nn1C(=O)c1ccccc1", "values": [{"measurement": "IC50", "setting": "Prothrombin", "value": "0.082 µM (active)"}]}, {"smiles": "CC1(C)C(=O)Nc2ccccc2N1C(=O)COc1ccc(S(=O)(=O)N2CCOCC2)cc1Cl", "values": [{"measurement": "IC50", "setting": "Estrogen receptor beta", "value": "< 0.023 µM (not active)"}]}, {"smiles": "COc1ccc(-c2coc3c(O)c(OC)ccc3c2=O)cc1", "note": "[RETUSIN 7-METHYL ETHER]", "values": [{"measurement": "AC50", "setting": "Cytochrome P450 3A4", "value": "31.6 µM (inconclusive)"}]}, {"smiles": "CC(/C=N/n1c(S)nnc1-c1ccncc1)=C\\c1ccco1", "values": [{"measurement": "IC50", "setting": "[1]", "value": "> 100 µM (inactive)"}, {"measurement": "IC50", "setting": "[2]", "value": "2.71 µM (active)"}, {"measurement": "IC50", "setting": "Large T antigen", "value": "45 µM (active)"}]}, {"smiles": "Cc1cc[n+](CC(=O)c2ccc(NC(=O)c3ccccc3)cc2)cc1", "values": [{"measurement": "EC50", "setting": "[3]", "value": "> 50 µM (active)"}]}, {"smiles": "Cc1cc(Oc2ccccc2)nc(SCC(=O)Nc2ccc(Cl)c(Cl)c2)n1", "values": [{"measurement": "IC50", "setting": "[4]", "value": "> 69.5 µM (inactive)"}, {"measurement": "IC50", "setting": "[5]", "value": "10.4 µM (inactive)"}]}, {"smiles": "COc1ccc(/C=N/n2c(S)nnc2-c2cc(C)[nH]n2)cc1", "values": [{"measurement": "IC50", "setting": "[1]", "value": "> 100 µM (inactive)"}, {"measurement": "IC50", "setting": "[2]", "value": "3.83 µM (active)"}]}, {"smiles": "CCCN1C/C(=C/c2ccc3c(c2)OCO3)C(=O)/C(=C/c2ccc3c(c2)OCO3)C1", "values": [{"measurement": "IC50", "setting": "[4]", "value": "19.6 µM (inactive)"}, {"measurement": "AC50", "setting": "[6]", "value": "0.766 µM (active)"}, {"measurement": "EC50", "setting": "BJ [7]", "value": "4.04 µM (inconclusive)"}, {"measurement": "EC50", "setting": "[8]", "value": "4.99 µM (active)"}, {"measurement": "EC50", "setting": "BJ [9]", "value": "2.94 µM (inconclusive)"}, {"measurement": "EC50", "setting": "BJ [10]", "value": "14.9 µM (inconclusive)"}, {"measurement": "EC50", "setting": "BJ [11]", "value": "0.582 µM (inconclusive)"}, {"measurement": "IC50", "setting": "[5]", "value": "> 69.5 µM (inactive)"}, {"measurement": "CC50", "setting": "Vero", "value": "9.59 µM (active)"}]}, {"smiles": "COc1cccc2cc(C(=O)NCC3CCCO3)c(=O)oc12", "note": "(configuration not stated)", "values": [{"measurement": "IC50", "setting": "Prothrombin", "value": "> 50 µM (not active)"}]}, {"smiles": "CN(C)CCCn1c(=S)[nH]c2sc3c(c2c1=O)CCCC3", "values": [{"measurement": "AC50", "setting": "[6]", "value": "> 195 µM (inactive)"}, {"measurement": "AC50", "setting": "[12]", "value": "5.83 µM (active)"}]}, {"smiles": "Cc1cc(=O)cc2oc3cc(N)c(-c4c(C)cc(O)cc4O)c(C)c3nc1-2", "values": [{"measurement": "AC50", "setting": "Cytochrome P450 3A4", "value": "39.8 µM (inconclusive)"}]}, {"smiles": "CC(C)OC(=O)c1ccc(NC(=O)c2cncc(Br)c2)cc1", "values": [{"measurement": "IC50", "setting": "[13]", "value": "> 100 µM (active)"}, {"measurement": "CC50", "setting": "[14]", "value": "> 50 µM (active)"}]}]}
